Where two headings read alike, the source gives them in different places.

For orientation: melting point means the temperature, or range, at which the solid turns liquid.

The subject of data set [1] is corn plants (variety NK OCTET). The data set can be described thus: Reduced plant water use in corn (foliar spray, repeated weighing of pots). As to conditions: Zea mays, corn plants sprayed at 500 μM, average of 6 pots. The class given is in vivo. In outline: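 Twelve-day-old corn plants sprayed on foliage with EC formulations diluted in water with 0.4% rape seed methyl ester. Day-time water use tracked by repeated pot weighing through 2.5 DAA, summed cumulatively; analysed by covariance with water use 1 day before application as baseline.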

Data set [2] deals with soybean plants (variety S20-G7). The experiment in a line: Reduced plant water use in soybean (foliar spray, repeated weighing of pots). The class given is in vivo. As to conditions: Glycine max, foliar, Table B1, sprayed at 500 μM, vs negative control. In outline:
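Compounds in blank EC formulation diluted in water with EXTRAVON 1 g/20 L, foliar-sprayed on 12-day-old soybean in growth chambers. Water use from repeated pot weighing at a.m./p.m. periods over 0-2 DAA, summed to cumulative 0-2.5 DAA; ANCOVA with pre-application baseline covariate, relative to blank-formulation control.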

Setting [3] is: 0 h, water use during day time vs negative control, 0 DAA a.m. (10:30-12:50), read-out: % WU 0 DAA AM.
The mark [4] stands for this setting: 0 h, water use during day time vs negative control, 0 DAA p.m. (14:00-19:50), read-out: % WU 0DAA PM.
Where [5] appears, read: 24 h, water use during day time vs negative control, 1 DAA a.m. (07:30-12:50), read-out: % WU 1DAA AM.
Setting [6] is: 24 h, water use during day time vs negative control, 1 DAA p.m. (14:00-19:50), read-out: % WU 1DAA PM.
Setting [7] is: 48 h, water use during day time vs negative control, 2 DAA a.m. (07:30-12:50), read-out: % WU 2 DAA AM.
Where [8] appears, read: 48 h, water use during day time vs negative control, 2 DAA p.m. (14:00-19:50), read-out: % WU 2 DAA PM.
The mark [9] stands for this setting: 60 h, cumulative total water use 0-2.5 DAA (sum of the time points) vs negative control, read-out: % WU Total 0 to 2.5 DAA.
Where [10] appears, read: 0 h, 0 DAA a.m. (10:30-12:50), read-out: % WU 0 DAA AM.
Setting [11] is: 24 h, 1 DAA a.m. (7:30-12:50), read-out: % WU 1DAA AM.
Where [12] appears, read: 24 h, 1 DAA p.m. (14:00-19:50), read-out: % WU 1DAA PM.
[13] abbreviates: 48 h, 2 DAA a.m. (07:30-12:50), read-out: % WU 2 DAA AM.
Setting [14] is: 48 h, 2 DAA p.m. (14:00-19:50), read-out: % WU 2 DAA PM.
Where [15] appears, read: 60 h, cumulative total WU (0-2.5 DAA), read-out: % WU Total 0 to 2.5 DAA.

Turning to `CCCN1C(=O)CCc2cc(CNS(=O)(=O)c3cn(C)cn3)ccc21` [Compound 3.063, 1-methyl-N-[(2-oxo-1-propyl-3,4-dihydroquinolin-6-yl)methyl]imidazole-4-sulfonamide], the melting point was in the range of 168 to 171 °C. The change in vivo at 500 µM in data set [1] (setting [3]) is -8.4%. Moreover, the change in vivo at 500 µM in data set [1] (setting [4]) is -3.1%. Besides, the change in vivo at 500 µM in data set [1] (setting [5]) is -3%. Further, in data set [1] (setting [6]), the change in vivo at 500 µM was -1%. The change in vivo at 500 µM in data set [1] (setting [7]) was -1.5%. In data set [1] (setting [8]), the change in vivo at 500 µM is 2%. For the same compound, the change in vivo at 500 µM in data set [1] (setting [9]) was -1.4%. In data set [2] (setting [10]), the change in vivo at 500 µM was -9.3%. The change in vivo at 500 µM in data set [2] (setting [11]) is -5.1%. Moreover, the change in vivo at 500 µM in data set [2] (setting [12]) was -3.9%. Further, the change in vivo at 500 µM in data set [2] (setting [13]) is -6.6%. Further, the change in vivo at 500 µM in data set [2] (setting [14]) was -5%. Further, the change in vivo at 500 µM in data set [2] (setting [15]) was -5.5%.

Compound `CCCN1C(=O)CCc2cc(CNS(=O)(=O)c3cc(Cl)sc3Cl)ccc21` [Compound 3.064, 2,5-dichloro-N-[(2-oxo-1-propyl-3,4-dihydroquinolin-6-yl)methyl]thiophene-3-sulfonamide] showed a melting point of 131 to 134 °C. Besides, in data set [1] (setting [3]), the change in vivo at 500 µM was -12.6%. Also, in data set [1] (setting [4]), the change in vivo at 500 µM is -14.2%. Besides, the change in vivo at 500 µM in data set [1] (setting [5]) is -11.6%. The change in vivo at 500 µM in data set [1] (setting [6]) was -9.9%. The change in vivo at 500 µM in data set [1] (setting [7]) was -5.6%. The change in vivo at 500 µM in data set [1] (setting [8]) was -4.7%. Moreover, in data set [1] (setting [9]), the change in vivo at 500 µM is -9.3%. Besides, in data set [2] (setting [10]), the change in vivo at 500 µM is -34.7%. Also, in data set [2] (setting [11]), the change in vivo at 500 µM was -23.3%. The change in vivo at 500 µM in data set [2] (setting [12]) was -21.3%. Also, the change in vivo at 500 µM in data set [2] (setting [13]) is -17.2%. Moreover, in data set [2] (setting [14]), the change in vivo at 500 µM is -13.5%. The change in vivo at 500 µM in data set [2] (setting [15]) is -22.2%.

In turn, `CCCN1C(=O)CCc2cc(CNS(=O)(=O)CCC(F)(F)F)ccc21` [Compound 3.067, 3,3,3-trifluoro-N-[(2-oxo-1-propyl-3,4-dihydroquinolin-6-yl)methyl]propane-1-sulfonamide] gave a melting point of 132 to 135 °C. Besides, in data set [1] (setting [3]), the change in vivo at 500 µM is -14.7%. The change in vivo at 500 µM in data set [1] (setting [4]) was -10.7%. In addition, the change in vivo at 500 µM in data set [1] (setting [5]) was -12.1%. The change in vivo at 500 µM in data set [1] (setting [6]) is -11.5%. For the same compound, in data set [1] (setting [7]), the change in vivo at 500 µM is -9.9%. Also, the change in vivo at 500 µM in data set [1] (setting [8]) is -10.1%. Also, the change in vivo at 500 µM in data set [1] (setting [9]) was -11.1%. Besides, the change in vivo at 500 µM in data set [2] (setting [10]) is -28.4%. The change in vivo at 500 µM in data set [2] (setting [11]) was -19.3%. The change in vivo at 500 µM in data set [2] (setting [12]) was -17.2%. Further, the change in vivo at 500 µM in data set [2] (setting [13]) is -13.3%. Moreover, the change in vivo at 500 µM in data set [2] (setting [14]) was -9.5%. Moreover, the change in vivo at 500 µM in data set [2] (setting [15]) was -17.2%.

`CCCN1C(=O)CCc2cc(CNS(=O)(=O)c3ccsc3)ccc21` [Compound 3.068, N-[(2-oxo-1-propyl-3,4-dihydroquinolin-6-yl)methyl]thiophene-3-sulfonamide] registered a melting point of 150 to 154 °C. For the same compound, the change in vivo at 500 µM in data set [1] (setting [3]) was -25.5%. Also, the change in vivo at 500 µM in data set [1] (setting [4]) is -24.9%. Further, the change in vivo at 500 µM in data set [1] (setting [5]) is -15.8%. Further, the change in vivo at 500 µM in data set [1] (setting [6]) was -13.1%. Further, the change in vivo at 500 µM in data set [1] (setting [7]) is -8.9%. In addition, in data set [1] (setting [8]), the change in vivo at 500 µM is -9.4%. Moreover, in data set [1] (setting [9]), the change in vivo at 500 µM is -14.8%. Further, the change in vivo at 500 µM in data set [2] (setting [10]) was -46%. Further, in data set [2] (setting [11]), the change in vivo at 500 µM was -39.3%. Moreover, the change in vivo at 500 µM in data set [2] (setting [12]) is -31.6%. For the same compound, in data set [2] (setting [13]), the change in vivo at 500 µM was -22.3%. Further, the change in vivo at 500 µM in data set [2] (setting [14]) is -15.3%. Moreover, the change in vivo at 500 µM in data set [2] (setting [15]) is -31.6%.

In the case of `CCCN1C(=O)CCc2cc(CNS(=O)(=O)c3ccc4ccccc4c3)ccc21` [Compound 3.075, N-[(2-oxo-1-propyl-3,4-dihydroquinolin-6-yl)methyl]naphthalene-2-sulfonamide], the melting point fell in the range of 169 to 173 °C. The change in vivo at 500 µM in data set [1] (setting [3]) was -9.8%. Besides, the change in vivo at 500 µM in data set [1] (setting [4]) is -7.9%. Besides, the change in vivo at 500 µM in data set [1] (setting [5]) was -8.2%. Moreover, the change in vivo at 500 µM in data set [1] (setting [6]) is -6.4%. Further, in data set [1] (setting [7]), the change in vivo at 500 µM was -4.9%. In addition, the change in vivo at 500 µM in data set [1] (setting [8]) was -3.3%. In data set [1] (setting [9]), the change in vivo at 500 µM is -6.3%. For the same compound, the change in vivo at 500 µM in data set [2] (setting [10]) is -10.8%. The change in vivo at 500 µM in data set [2] (setting [11]) is -2.1%. The change in vivo at 500 µM in data set [2] (setting [12]) is -0.6%. Moreover, the change in vivo at 500 µM in data set [2] (setting [13]) was -2.1%. For the same compound, the change in vivo at 500 µM in data set [2] (setting [14]) is -2%. Further, the change in vivo at 500 µM in data set [2] (setting [15]) is -3.3%.
